Measurements taken from publication PMC9283466, “In silico identification of two peptides with antibacterial activity against multidrug-resistant Staphylococcus aureus” (NPJ Biofilms and Microbiomes, 2022).
In brackets after ≈: the same amount, converted by molar mass. Bridge positions count the residues as written; N and C are the ends. Peptide text beside a SMILES is read from it.

Experiments:
[1] = test system: S. aureus MRSA USA300 cells; test: Transcriptomic analysis (RNA-Seq, DESeq2); assay type: cell-based, Staphylococcus aureus; conditions: MIC concentration for 60 min; p <0.05, abs(log2FC)> 2
Protocol: The mechanism of action and effects of HG2 and HG4 against S. aureus MRSA USA300 was investigated using transcriptomics analysis[57],[58]. […] The increased sample volume and limited treatment time of 60 min served to maintain the quality and yield of RNA. Untreated cells served as control. Cells were washed and resuspended in PBS and then RNAprotect Bacteria Reagent (QIAGEN, Hilden, Germany) was added and pelleted. This was followed by incubation in Tris-EDTA buffer containing Proteinase K and Bacterial Lysis Mix (Mutanolysin and Lysozyme) at room temperature for 10 min addition. Thereafter, RNA extraction was performed using the Qiagen RNeasy Plus Mini Kit following the manufacturer’s protocol (Qiagen, Manchester, UK). RNA was quantified using a Qubit™ fluorometer with a broad range RNA kit (Invitrogen, USA), according to the manufacturer’s instructions. All experiments were carried out in triplicates. […]
Analysis of sequencing data was carried out using the Geneious Prime® (2021.1.1) software (Biomatters Ltd, New Zealand)[59]. Firstly, all raw paired-end fastq reads passing quality check by FastQC v0.11.9 were mapped to the reference genome (Staphylococcus aureus subsp. aureus USA300_TCH1516 downloaded from the NCBI website), using Geneious RNA-Seq mapper. […]

E. coli K12 = test: microbe, parasite or virus in culture; assay type: cell-based, Escherichia coli; conditions: K12
Protocol: To determine the antimicrobial activity of the new antimicrobial peptides, HG2 and HG4, their minimum inhibitory concentrations (MICs) were determined by broth microdilution method[51] in cation adjusted Mueller Hinton broth (MHB) following the International Organisation for Standardisation (ISO) 20776-1 standard for MIC testing using a final bacterial inoculum of 5 × 10^5 CFU/ml[52]. […] The peptides dissolved in sterile distilled water were added to bacteria culture and incubated overnight at appropriate conditions. The MICs of the peptides and comparator antibiotics were recorded after 18–24 h. The minimum bactericidal concentrations (MBCs) were also determined and were taken as the lowest concentration of the antimicrobial that prevented the growth of bacterial cells after the subculture of cells (from MIC treatment) onto antibiotic-free media.

[2] = test system: MRSA USA300 infection in G. mellonella; test: In vivo efficacy, G. mellonella MRSA USA300 infection model; set-up: species or system Galleria mellonella; conditions: MRSA USA300 LD; for survival rate higher than the control group: peptides at 1x MIC; for increase in survival versus untreated control group / survival rate: peptides at 3x MIC
Protocol: All procedures of larvae rearing, injection and G. mellonella killing assays were conducted using validated methods. In each assay, ten larvae weighing between 280–300 mg each were randomly selected. Larvae with the previous melanisation of the cuticle were excluded from the experiments. All experiments were designed in at least four experimental and biological replicates.
To determine the LD50 and LD of S. aureus MRSA USA300 in G. mellonella, an inoculum of 10 µl of MRSA USA300 suspension in PBS 1X (10^3 to 10^6 CFU/larvae) was injected into the larvae haemocoel using insulin syringes (Becton Dickinson, USA). Larvae inoculated with PBS and larvae not inoculated were used as negative controls.
The efficacy of the peptides HG2 and HG4 to control MRSA USA300 infection in vivo, was evaluated following the protocol by ref. [43]. The groups of G. mellonella larvae were infected with the predetermined lethal dose of MRSA USA300. After 30 min of the larvae injection with the bacteria, the peptides were injected at 1x MIC and 3x MIC concentrations respectively. Larvae injected with PBS solution, and HG2 or HG4 peptide solution (1x MIC or 3x MIC) alone were used as negative controls. Injected larvae were maintained at 37 °C in the dark and their survival was monitored and analyzed as above.

`CC[C@H](C)[C@H](NC(=O)[C@H](CC(C)C)NC(=O)[C@H](CC(C)C)NC(=O)[C@H](CC(C)C)NC(=O)[C@H](CCCCN)NC(=O)[C@H](CCCCN)NC(=O)[C@@H](N)CCSC)C(=O)N[C@@H](CC(C)C)C(=O)N[C@@H](Cc1ccccc1)C(=O)N[C@H]1CSSC[C@@H](C(=O)N[C@@H](CCCCN)C(=O)N[C@@H](CCCCN)C(=O)N[C@@H](C)C(=O)N2CCC[C@H]2C(N)=O)NC(=O)CNC(=O)[C@H](C)NC(=O)[C@H](CC(C)C)NC(=O)[C@H](C)NC(=O)[C@H](CC(C)C)NC(=O)[C@H](C)NC(=O)[C@H](CC(C)C)NC1=O` [HG2] (H-MKKLLLILFCLALALAGCKKAP-NH2; disulfide 10-18; N-terminus assumed) was tested, and the “number of differentially expressed genes (DEGs)” value [1] was 114, the MIC (E. coli K12) was 256 µg/mL (≈ 109 µM) and the “survival rate higher than the control group” value [2] was ~ 20%. The “increase in survival versus untreated control group” value [2] was 4.6 fold and the survival rate [2] was 78%.
In the case of `CC[C@H](C)[C@H](NC(=O)[C@H](CC(C)C)NC(=O)[C@H](CC(C)C)NC(=O)[C@H](C)NC(=O)CNC(=O)CNC(=O)[C@@H](NC(=O)[C@@H](NC(=O)[C@H](CC(C)C)NC(=O)[C@H](C)NC(=O)[C@H](CC(C)C)NC(=O)CNC(=O)[C@H](CC(C)C)NC(=O)[C@@H](N)C(C)C)[C@@H](C)CC)C(C)C)C(=O)N[C@@H](CCCCN)C(=O)N[C@@H](CCCCN)C(=O)N[C@@H](CCCCN)C(=O)N[C@@H](CCC(N)=O)C(=O)N[C@@H](C)C(=O)N[C@@H](CCCCN)C(=O)N[C@@H](CO)C(N)=O` [HG4] (H-VLGLALIVGGALLIKKKQAKS-NH2; N-terminus and C-terminus assumed), the “number of differentially expressed genes (DEGs)” value [1] is reported as 123, the MIC (E. coli K12) is reported as 512 µg/mL (≈ 242 µM) and the “survival rate higher than the control group” value [2] is reported as ~ 20%. For the same compound, the “increase in survival versus untreated control group” value [2] was 4.4 fold and the survival rate [2] was 75%.
